Reference: patent publication US7528136B2, “Prolinamide derivatives as NK3 antagonists” (Hoffmann-La Roche Inc., priority 2007, dated 2009)

Experiments:
[1] = target: T1, recombinant human NK3 receptor (Homo sapiens, UniProt P29371); test: [3H]SR142801 competition binding assay; conditions: [3H]SR142801, membranes from HEK293 cells transiently expressing hNK3; read-out: Data (hNK-3 receptor affinity)
T1 construct: expressed in transfected cells; host or cells: HEK293 cells (transient expression), membranes
T1 sequence (P29371 1-465): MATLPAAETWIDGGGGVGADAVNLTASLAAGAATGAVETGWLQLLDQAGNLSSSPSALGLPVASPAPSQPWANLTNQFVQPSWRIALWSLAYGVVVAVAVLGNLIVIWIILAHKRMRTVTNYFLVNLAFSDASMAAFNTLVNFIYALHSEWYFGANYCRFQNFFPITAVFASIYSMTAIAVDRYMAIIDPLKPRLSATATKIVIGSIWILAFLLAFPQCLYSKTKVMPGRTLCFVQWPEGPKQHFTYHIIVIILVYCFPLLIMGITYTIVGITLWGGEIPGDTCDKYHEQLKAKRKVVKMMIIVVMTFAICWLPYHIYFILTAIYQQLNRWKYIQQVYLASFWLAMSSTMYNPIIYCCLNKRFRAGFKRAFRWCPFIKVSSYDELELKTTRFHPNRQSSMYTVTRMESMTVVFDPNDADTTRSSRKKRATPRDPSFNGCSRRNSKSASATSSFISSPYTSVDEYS
Protocol: [^3H]SR142801 Competition Binding Assay
hNK3 receptor binding experiment were performed using [^3H]SR142801 (Catalog No. TRK1035, specific activity: 74.0 Ci/mmol, Amersham, GE Healthcare UK limited, Buckinghamshire, UK) and membrane isolated from HEK293 cells transiently expressing recombinant human NK3 receptor. After thawing, the membrane homogenates were centrifuged at 48,000×g for 10 min at 4° C., the pellets were resuspended in the 50 mM Tris-HCl, 4 mM MnCl2, 1 μM phosphoramidon, 0.1% BSA binding buffer at pH 7.4 to a final assay concentration of 5 μg protein/well. For inhibition experiments, membranes were incubated with [^3H]SR142801 at a concentration equal to KD value of radioligand and 10 concentrations of the inhibitory compound (0.0003-10 μM) (in a total reaction volume of 500 μl) for 75 min at room temperature (RT). At the end of the incubation, membranes were filtered onto unitfilter (96-well white microplate with bonded GF/C filter preincubated 1 h in 0.3% PEI+0.3% BSA, Packard BioScience, Meriden, Conn.) with a Filtermate 196 harvester (Packard BioScience) and washed 4 times with ice-cold 50 mM Tris-HCl, pH 7.4 buffer. Nonspecific binding was measured in the presence of 10 μM SB222200 for both radioligands. The radioactivity on the filter was counted (5 min) on a Packard Top-count microplate scintillation counter with quenching correction after addition of 45 μl of microscint 40 (Can berra Packard S. A., Zürich, Switzerland) and shaking for 1 h. Inhibition curves were fitted according to the Hill equation: y=100/(1+(x/IC50)^nH), where nH=slope factor using Excel-fit 4 software (Microsoft). IC50 values were derived from the inhibition curve and the affinity constant (Ki) values were calculated using the Cheng-Prussoff equation Ki=IC50/(1+[L]/KD) where [L] is the concentration of radioligand and KD is its dissociation constant at the receptor, derived from the saturation isotherm. All experiments were performed in duplicate and the mean±standard error (SEM) of the individual Ki values was calculated.

schizophrenia = conditions: phase II trial, cited from earlier work

| Structure (SMILES) | Ki [1] [nM] | also measured |
| --- | --- | --- |
| O=C([C@@H]1C[C@H](NCc2ccc(F)cc2F)CN1Cc1ccccc1)N1CCN(c2ccc(F)cc2)CC1 [Example 8, [(2S,4S)-1-Benzyl-4-(2,4-difluoro-benzylamino)-pyrrolidin-2-yl]-[4-(4-fluoro-phenyl)-piperazin-1-yl]-methanone] | 64.8 |  |
| N#Cc1ccccc1N1CCN(C(=O)C2CC(NCc3ccc(F)cc3F)CN2Cc2cccc(F)c2)CC1 (stereo not shown) [Example 54, 2-{4-[4-(2,4-Difluoro-benzylamino)-1-(3-fluoro-benzyl)-pyrrolidine-2-carbonyl]-piperazin-lyl}-benzonitrile] | 47 |  |
| CN(Cc1cc(C(F)(F)F)cc(C(F)(F)F)c1)[C@H]1C[C@@H](C(=O)N2CCN(c3ccccc3C#N)CC2)N(Cc2ccccc2)C1 [Example 32, 2-(4-{(2S,4S)-1-Benzyl-4-[(3,5-bis-trifluoromethyl-benzyl)-methyl-amino]-pyrrolidine-2-carbonyl}-piperazin-1-yl)-benzonitrile] | 64.4 |  |
| N#Cc1ccccc1N1CCN(C(=O)[C@@H]2C[C@@H](NCc3ccc(F)cc3F)CN2Cc2ccccc2)CC1 [Example 88, 2-{4-[(2S,4R)-1-Benzyl-4-(2,4-difluoro-benzylamino)-pyrrolidine-2-carbonyl]-piperazin-1-yl}-benzonitrile] | 97 |  |
| O=C([C@@H]1C[C@H](NCc2ccc(F)cc2F)CN1Cc1ccccc1)N1CCN(c2ccccc2)CC1 [Example 7, [(2S,4S)-1-Benzyl-4-(2,4-difluoro-benzylamino)-pyrrolidin-2-yl]-(4-phenyl-piperazin-1-yl)-methanone] | 63 |  |
| CC(=O)N(C)C1(c2ccccc2)CCN(CCC[C@]2(c3ccc(Cl)c(Cl)c3)CCCN(C(=O)c3ccccc3)C2)CC1 [SR 142,801, Osanetant] |  | activity on positive symptoms of schizophrenia (schizophrenia; altered behavior, delusion, hallucinations, extreme emotions, excited motor activity, incoherent speech): active; activity in the treatment of negative symptoms (schizophrenia; depression, anhedonia, social isolation, memory and attention deficits): inactive |
| O=C([C@@H]1C[C@H](NCc2ccc(F)cc2F)CN1Cc1ccccc1)N1CCN(c2ccccc2Cl)CC1 [Example 10, [(2S,4S)-1-Benzyl-4-(2,4-difluoro-benzylamino)-pyrrolidin-2-yl]-[4-(2-chloro-phenyl)-piperazin-1-yl]-methanone] | 56.7 |  |
| N#Cc1ccccc1N1CCN(C(=O)[C@@H]2C[C@H](NCc3cc(C(F)(F)F)ccc3Cl)CN2Cc2ccccc2)CC1 [Example 38, 2-{4-[(2S,4S)-1-Benzyl-4-(2-chloro-5-trifluoromethyl-benzylamino)-pyrrolidine-2-carbonyl]-piperazin-1-yl}-benzonitrile] | 58 |  |
| O=C([C@@H]1C[C@@H](NCc2ccc(F)cc2F)CN1Cc1ccccc1)N1CCN(c2cccc(C(F)(F)F)c2)CC1 [Example 87, [(2S,4R)-1-Benzyl-4-(2,4-difluoro-benzylamino)-pyrrolidin-2-yl]-[4-(3-trifluoromethyl-phenyl)-piperazin-1-yl]-methanone] | 52 |  |
| N#Cc1ccccc1N1CCN(C(=O)[C@@H]2C[C@H](NCc3cccc(Cl)c3F)CN2Cc2ccccc2)CC1 [Example 49, 2-{4-[(2S,4S)-1-Benzyl-4-(3-chloro-2-fluoro-benzylamino)-pyrrolidine-2-carbonyl]-piperazin-1-yl}-benzonitrile] | 48 |  |
| N#Cc1ccccc1N1CCN(C(=O)[C@@H]2C[C@H](NCc3cccc(Cl)c3)CN2Cc2ccccc2)CC1 [Example 40, 2-{4-[(2S,4S)-1-Benzyl-4-(3-chloro-benzylamino)-pyrrolidine-2-carbonyl]-piperazin-1-yl}-benzonitrile] | 71 |  |
| N#Cc1ccccc1N1CCN(C(=O)[C@@H]2C[C@H](NCc3ccccc3C(F)(F)F)CN2Cc2ccccc2)CC1 [Example 36, 2-{4-[(2S,4S)-1-Benzyl-4-(2-trifluoromethyl-benzylamino)-pyrrolidine-2-carbonyl]-piperazin-1-yl}-benzonitrile] | 94.8 |  |

Further compounds by falling Ki [1], results first:

| Ki [1] [nM] | Structure (SMILES) | also measured |
| --- | --- | --- |
| 44 | COc1cc(CN[C@H]2C[C@@H](C(=O)N3CCN(c4ccccc4C#N)CC3)N(Cc3ccccc3)C2)cc(OC)c1 [Example 34, 2-{4-[(2S,4S)-1-Benzyl-4-(3,5-dimethoxy-benzylamino)-pyrrolidine-2-carbonyl]-piperazin-1-yl}-benzonitrile] |  |
| 41.2 | CN(Cc1cc(C(F)(F)F)cc(C(F)(F)F)c1)[C@H]1C[C@@H](C(=O)N2CCN(c3cccc(C(F)(F)F)c3)CC2)N(Cc2cccc(Cl)c2)C1 [Example 68, [(2S,4S)-4-[(3,5-Bis-trifluoromethyl-benzyl)-methyl-amino]-1-(3-chloro-benzyl)-pyrrolidin-2-yl]-[4-(3-trifluoromethyl-phenyl)-piperazin-1-yl]-methanone] |  |
| 39.4 | COc1cc2c(cc1OC)CN(C(=O)[C@@H]1C[C@H](NCc3ccc(F)cc3F)CN1Cc1ccccc1)CC2 [Example 13, [(2S,4S)-1-Benzyl-4-(2,4-difluoro-benzylamino)-pyrrolidin-2-yl]-(6,7-dimethoxy-3,4-dihydro-1H-isoquinolin-2-yl)-methanone] |  |
| 39 | CN(Cc1cc(C(F)(F)F)cc(C(F)(F)F)c1)[C@H]1C[C@@H](C(=O)N2CCN(c3cccc(C(F)(F)F)c3)CC2)N(Cc2ccccc2)C1 [Example 62, {(2S,4S)-1-Benzyl-4-[(3,5-bis-trifluoromethyl-benzyl)-methyl-amino]-pyrrolidin-2-yl}-[4-(3-trifluoromethyl-phenyl)-piperazin-1-yl]-methanone] |  |
| 37.6 | O=C([C@@H]1C[C@H](NCc2ccc(F)cc2F)CN1Cc1ccccc1)N1CCN(c2cccc(C(F)(F)F)c2)CC1 [Example 5, [(2S,4S)-1-Benzyl-4-(2,4-difluoro-benzylamino)-pyrrolidin-2-yl]-[4-(3-trifluoromethyl-phenyl)-piperazin-1-yl]-methanone] |  |
| 29 | N#Cc1ccccc1N1CCN(C(=O)[C@@H]2C[C@H](NCc3ccc(Cl)c(Cl)c3)CN2Cc2ccccc2)CC1 [Example 48, 2-{4-[(2S,4S)-1-Benzyl-4-(3,4-dichloro-benzylamino)-pyrrolidine-2-carbonyl]-piperazin-1-yl}-benzonitrile] |  |
| 27.9 | N#Cc1ccccc1N1CCN(C(=O)[C@@H]2C[C@H](NCc3ccc(F)c(Cl)c3)CN2Cc2ccccc2)CC1 [Example 45, 2-{4-[(2S,4S)-1-Benzyl-4-(3-chloro-4-fluoro-benzylamino)-pyrrolidine-2-carbonyl]-piperazin-1-yl}-benzonitrile] |  |
| 23.5 | COc1ccccc1N1CCN(C(=O)[C@@H]2C[C@H](NCc3ccc(F)cc3F)CN2Cc2ccccc2)CC1 [Example 12, [(2S,4S)-1-Benzyl-4-(2,4-difluoro-benzylamino)-pyrrolidin-2-yl]-[4-(2-methoxy-phenyl)-piperazin-1-yl]-methanone] |  |
| 12.2 | N#Cc1ccccc1N1CCN(C(=O)[C@@H]2C[C@H](NCc3ccc(F)cc3F)CN2Cc2ccccc2)CC1 [Example 1, 2-{4-[(2S,4S)-1-Benzyl-4-(2,4-difluoro-benzylamino)-pyrrolidine-2-carbonyl]-piperazin-1-yl}-benzonitrile] |  |
